Values joined by “and” are separate entries in the source; they are usually repeats but may differ in a detail not shown here. Equal values may be shown once.
Tests used:
[1] = molecular target: Human immunodeficiency virus type 1 protease (Human immunodeficiency virus 1) (UniProt Q72874); test: Initial effective dose against protease of human immunodeficiency virus type 1
[2] = molecular target: Human immunodeficiency virus type 1 protease (Human immunodeficiency virus 1) (UniProt Q72874); test: Effective dose against protease of human immunodeficiency virus type 1
[3] = molecular target: T1, Nitric oxide synthase 3 (Homo sapiens) (UniProt P29474); test: Inhibitory activity against Endothelial nitric oxide synthase
T1 sequence (whole entry): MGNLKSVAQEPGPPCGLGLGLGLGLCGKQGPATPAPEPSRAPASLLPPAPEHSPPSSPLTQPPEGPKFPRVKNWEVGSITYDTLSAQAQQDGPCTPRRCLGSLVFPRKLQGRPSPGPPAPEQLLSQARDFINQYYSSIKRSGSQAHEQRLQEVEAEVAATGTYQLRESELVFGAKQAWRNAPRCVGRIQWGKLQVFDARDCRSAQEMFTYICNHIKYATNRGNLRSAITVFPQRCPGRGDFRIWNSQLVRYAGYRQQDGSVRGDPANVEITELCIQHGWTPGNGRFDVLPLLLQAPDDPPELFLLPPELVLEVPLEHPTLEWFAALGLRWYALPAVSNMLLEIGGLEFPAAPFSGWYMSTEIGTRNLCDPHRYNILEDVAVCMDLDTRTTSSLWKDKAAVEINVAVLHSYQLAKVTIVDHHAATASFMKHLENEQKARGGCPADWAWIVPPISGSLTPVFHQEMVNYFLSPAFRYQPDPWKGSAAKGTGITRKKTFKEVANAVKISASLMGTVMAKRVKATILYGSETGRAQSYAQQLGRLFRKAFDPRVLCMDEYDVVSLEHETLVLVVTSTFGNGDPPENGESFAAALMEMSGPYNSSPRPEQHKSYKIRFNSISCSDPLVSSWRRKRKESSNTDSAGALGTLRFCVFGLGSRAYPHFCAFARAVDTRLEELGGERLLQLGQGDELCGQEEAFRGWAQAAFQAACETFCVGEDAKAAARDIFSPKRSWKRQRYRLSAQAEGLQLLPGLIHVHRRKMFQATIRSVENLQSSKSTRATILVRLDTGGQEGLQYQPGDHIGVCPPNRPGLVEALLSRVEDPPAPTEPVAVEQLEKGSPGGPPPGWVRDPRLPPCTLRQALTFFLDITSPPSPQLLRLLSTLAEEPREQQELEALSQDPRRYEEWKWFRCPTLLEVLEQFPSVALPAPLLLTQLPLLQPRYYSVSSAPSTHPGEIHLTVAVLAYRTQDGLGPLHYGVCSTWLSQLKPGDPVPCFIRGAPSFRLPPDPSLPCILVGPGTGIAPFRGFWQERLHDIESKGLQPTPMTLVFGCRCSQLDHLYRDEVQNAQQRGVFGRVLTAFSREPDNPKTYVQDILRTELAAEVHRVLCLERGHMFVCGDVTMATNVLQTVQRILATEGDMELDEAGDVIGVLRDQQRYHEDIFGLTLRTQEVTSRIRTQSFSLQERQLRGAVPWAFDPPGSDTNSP

[4] = molecular target: Nitric oxide synthase 1 (Homo sapiens) (UniProt P29475); test: Inhibitory activity against Neuronal nitric oxide synthase
[5] = molecular target: Nitric oxide synthase, inducible (Homo sapiens) (UniProt P35228); test: Inhibitory activity against Inducible nitric oxide synthase
[6] = Inhibitory concentration against Alpha-chymotrypsin
[7] = molecular target: Human immunodeficiency virus type 1 protease (Human immunodeficiency virus 1, UniProt Q72874); test: Inhibitory concentration against HIV aspartyl protease
Chymotrypsin-C = molecular target: T2, Chymotrypsin-C (Homo sapiens, UniProt Q99895); test: Inhibitory concentration against Alpha-chymotrypsin; In active at 100 uM
T2 sequence (Q99895 whole entry): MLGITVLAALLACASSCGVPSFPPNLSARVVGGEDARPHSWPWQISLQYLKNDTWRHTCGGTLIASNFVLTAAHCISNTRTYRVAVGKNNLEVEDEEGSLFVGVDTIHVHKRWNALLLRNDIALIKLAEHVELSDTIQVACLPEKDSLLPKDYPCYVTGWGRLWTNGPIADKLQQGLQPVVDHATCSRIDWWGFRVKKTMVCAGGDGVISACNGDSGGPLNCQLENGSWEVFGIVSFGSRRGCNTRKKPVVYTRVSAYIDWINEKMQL

Nitric oxide synthase, inducible (Homo sapiens), sequence (P35228 whole entry): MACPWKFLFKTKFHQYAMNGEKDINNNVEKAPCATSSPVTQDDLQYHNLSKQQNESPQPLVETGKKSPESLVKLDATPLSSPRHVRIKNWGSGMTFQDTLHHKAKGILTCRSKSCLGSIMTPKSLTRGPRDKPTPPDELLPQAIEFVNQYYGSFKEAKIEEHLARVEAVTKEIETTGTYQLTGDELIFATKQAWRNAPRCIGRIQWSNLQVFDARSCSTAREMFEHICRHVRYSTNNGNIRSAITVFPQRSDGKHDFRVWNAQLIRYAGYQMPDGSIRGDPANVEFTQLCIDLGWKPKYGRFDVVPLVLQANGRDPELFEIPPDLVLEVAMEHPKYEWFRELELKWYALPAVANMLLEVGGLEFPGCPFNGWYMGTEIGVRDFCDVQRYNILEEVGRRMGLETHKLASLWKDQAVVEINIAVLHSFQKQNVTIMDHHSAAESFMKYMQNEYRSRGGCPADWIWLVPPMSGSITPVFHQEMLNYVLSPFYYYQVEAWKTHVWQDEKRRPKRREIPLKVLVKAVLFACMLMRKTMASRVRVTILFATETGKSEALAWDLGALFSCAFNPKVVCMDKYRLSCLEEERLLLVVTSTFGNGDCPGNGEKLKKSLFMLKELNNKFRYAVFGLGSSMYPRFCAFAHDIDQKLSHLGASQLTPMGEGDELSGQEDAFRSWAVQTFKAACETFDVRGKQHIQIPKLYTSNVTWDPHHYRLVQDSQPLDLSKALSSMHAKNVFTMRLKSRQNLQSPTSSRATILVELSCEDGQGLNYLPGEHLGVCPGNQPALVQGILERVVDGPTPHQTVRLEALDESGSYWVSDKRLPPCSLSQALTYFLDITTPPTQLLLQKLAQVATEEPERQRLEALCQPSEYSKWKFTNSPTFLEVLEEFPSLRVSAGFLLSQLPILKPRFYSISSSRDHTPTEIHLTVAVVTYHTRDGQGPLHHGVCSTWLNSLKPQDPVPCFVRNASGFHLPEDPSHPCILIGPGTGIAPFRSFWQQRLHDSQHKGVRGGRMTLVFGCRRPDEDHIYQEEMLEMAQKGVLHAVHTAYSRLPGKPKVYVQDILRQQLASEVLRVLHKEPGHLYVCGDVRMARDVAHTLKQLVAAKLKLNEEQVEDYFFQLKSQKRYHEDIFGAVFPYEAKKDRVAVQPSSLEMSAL
Nitric oxide synthase 1 (Homo sapiens), sequence (P29475 whole entry): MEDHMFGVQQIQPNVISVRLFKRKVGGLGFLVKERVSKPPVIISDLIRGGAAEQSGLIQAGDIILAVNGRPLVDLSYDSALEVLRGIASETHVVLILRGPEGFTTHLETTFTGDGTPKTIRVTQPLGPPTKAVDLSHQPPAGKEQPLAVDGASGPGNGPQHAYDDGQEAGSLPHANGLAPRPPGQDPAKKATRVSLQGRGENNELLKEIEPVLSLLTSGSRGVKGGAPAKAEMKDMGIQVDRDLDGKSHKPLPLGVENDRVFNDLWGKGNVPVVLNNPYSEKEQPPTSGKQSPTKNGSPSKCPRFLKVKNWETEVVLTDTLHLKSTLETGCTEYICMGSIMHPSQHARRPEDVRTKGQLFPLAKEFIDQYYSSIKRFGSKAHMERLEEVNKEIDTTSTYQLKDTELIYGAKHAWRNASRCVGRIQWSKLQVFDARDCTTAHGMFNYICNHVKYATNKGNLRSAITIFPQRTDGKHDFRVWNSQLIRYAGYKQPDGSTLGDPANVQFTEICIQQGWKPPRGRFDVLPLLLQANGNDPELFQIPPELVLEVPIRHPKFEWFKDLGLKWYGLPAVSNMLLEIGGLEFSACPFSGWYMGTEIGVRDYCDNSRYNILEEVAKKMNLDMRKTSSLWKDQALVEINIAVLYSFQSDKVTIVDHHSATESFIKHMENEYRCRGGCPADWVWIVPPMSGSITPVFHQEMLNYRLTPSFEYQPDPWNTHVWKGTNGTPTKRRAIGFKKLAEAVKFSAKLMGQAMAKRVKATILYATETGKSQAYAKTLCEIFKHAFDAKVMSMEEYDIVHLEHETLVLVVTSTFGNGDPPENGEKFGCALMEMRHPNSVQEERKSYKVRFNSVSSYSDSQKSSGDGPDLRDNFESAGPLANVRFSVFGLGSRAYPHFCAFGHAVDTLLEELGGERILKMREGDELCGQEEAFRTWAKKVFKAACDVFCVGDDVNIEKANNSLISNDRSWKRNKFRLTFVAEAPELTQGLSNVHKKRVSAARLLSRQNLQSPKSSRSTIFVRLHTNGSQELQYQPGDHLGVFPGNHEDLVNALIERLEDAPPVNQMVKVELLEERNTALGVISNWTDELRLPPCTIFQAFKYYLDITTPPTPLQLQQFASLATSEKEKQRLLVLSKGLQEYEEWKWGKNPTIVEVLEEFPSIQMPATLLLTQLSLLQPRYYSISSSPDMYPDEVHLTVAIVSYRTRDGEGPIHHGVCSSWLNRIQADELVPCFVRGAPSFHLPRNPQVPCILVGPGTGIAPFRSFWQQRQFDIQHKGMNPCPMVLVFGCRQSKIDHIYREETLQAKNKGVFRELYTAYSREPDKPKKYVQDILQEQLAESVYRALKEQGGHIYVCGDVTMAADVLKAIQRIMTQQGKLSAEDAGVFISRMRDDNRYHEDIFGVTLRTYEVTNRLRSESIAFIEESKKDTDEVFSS

Compound	ED50 [1] [µM]	ED90 [2] [µM]	IC50 (Chymotrypsin-C)	Inhibition [3] [µM]	Inhibition [4] [µM]	Inhibition [5] [µM]	IC50 [6]	IC50 [7] [µM]
O=[N+]([O-])c1cccc2cn[nH]c12				8	15	15		
Cc1ccc2oc(=O)c3cc([N+](=O)[O-])ccc3c2c1							> 100 µM	50
O=c1oc2ccc(CBr)cc2c2ccc([N+](=O)[O-])cc12				120	250	60	> 100 µM	10
Nc1ccc2c(c1)c(=O)oc1ccc(CBr)cc12				120	200	110	> 100 µM and ~100 µM	50

Now from value to molecule, other results behind:

ED50 [1] [µM]	ED90 [2] [µM]	IC50 (Chymotrypsin-C)	Compound	Inhibition [3] [µM]	Inhibition [4] [µM]	Inhibition [5] [µM]	IC50 [6]	IC50 [7] [µM]
300	0.1		CCC[C@@]1(CCc2ccccc2)CC(O)=C([C@H](CC)c2cccc(NS(=O)(=O)c3ccc(C(F)(F)F)cn3)c2)C(=O)O1					
		Inactive	Cc1ccc2oc(=O)c3cc(N)ccc3c2c1	600	900	150	> 100 µM	~100
